According to patent publication US5821046A, “RNA oligonucleotides that bind HIV tat protein” (RiboTargets Holdings PLC, priority 1990, dated 1998):
Numbering of substitutions follows the chain as printed.

What was measured:
[1] = test system: HIV-1 tat protein; assay: direct filter binding assay of tat to TAR RNA (saturation binding, Scatchard analysis); conditions: direct filter binding; HIV-1 TAR from saturation binding/Scatchard plot, mutants estimated from half-maximal binding; read-out: Kd (dissociation constant of tat binding)
Description: The results shown graphically in FIG. 4 are from experiments in which binding reactions (500 ul) contained 40 nMolar^32 P uniformly radiolabelled TAR RNA at a specific activity of 100,000 Ci/mole; 0.5 ug calf thymus DNA; 0.2 ug yeast TRNA; 40 units RNAsin (Promega); 50mm Tris-HCl pH 7.9 and 20 mM KCl. Reaction mixtures were set up on ice and increasing amounts of HIV-1 tat protein were added and the reaction mixtures were filtered through prewashed nitrocellulose filters (Millipore 0.45 uM pore size). The filters were dried and counted by liquid scintillation counting. The fraction of radiolabeled RNA bound was plotted against HIV-1 tat concentration.
Binding was measured by a filter-binding assay as described below under "Method", using monomeric tat protein prepared by CNBr cleavage of a human growth hormone-tat fusion protein expressed in E. coli. Reactions for saturation binding contained labeled TAR RNA [SEQ ID NO: 1] or antisense TAR RNA [SEQ ID NO: 6] at 10 nm and between 0 to 300 nM purified tat protein. Antisense TAR RNA was used as a control, since antisense TAR is unable to form stable complexes with tat in gel-retardation assays (Dingwall et al., 1989).
The stoichiometry of the tat/TAR interaction was determined by varying the TAR RNA concentrations over a wide range, while keeping the tat protein concentration constant near the Kd. For this Scatchard analysis, the tat protein concentration was held constant at 40 nM and the RNA concentration was varied between 7nM and 320 nM. The total amount of labeled RNA was kept constant in the binding reactions, but the specific activity of the RNA was varied. […]
Tat protein was prepared either from beta-galactosidase-tat fusion proteins (6) or from human growth-hormone-tat fusion proteins (85) using an improved method. In brief, inclusion body pellets containing the fusion protein were solubilized in 7M GdHCl, 50 mM Tris-HCl pH8.0, 2 mM EDTA, 2mM DTT and the fusion protein was purified to near homogeneity by ion-exchange chromatography on Q-Sepharose and S-Sepharose (Pharmacia) in buffers containing […], 50 mM Tris-HCl pH8.0, 2mM EDTA, 2mM DTT. The cysteine residues were protected by disulphide-exchange with 20 mM 2-hydroxyethyldisulphide (86), and the protein was cleaved by cyanogen bromide (6). The basic tat protein was then separated from the acidic human growth hormone peptides by ion-exchange chromatography on Q-Sepharose and S-Sepharose in 6M Urea. The protecting groups were then removed from the protein by addition of 10 mM DTT and the protein refolded by stepwise dialysis against 6 m Urea, 5M Urea,3M Urea, 1M Urea and 0M Urea in a buffer containing 50 mM Tris-HCl pH8.0, 100 uM DTT, 10 uM ZnCl2 Tat protein refolded in this manner elutes as a monomer from Superose 12 columns (Pharmacia) and migrates as a single band on polyacrylamide gels. Protein prepared by both methods behaved comparably in binding assays.
A wide variety of parameters affecting the binding of tat protein to TAR RNA were studied and binding conditions were optimized. Binding of tat to TAR has a distinct pH optimum at pH 8.0, but good binding is observed between pH 7.5 and pH 8.5. Tat/TAR complexes are very sensitive to ionic strength. […] Addition of Zn^+2, Cd^+2, Ca^+2, Mg,^+2, Fe^+2 or Fe^+3 ions to the reaction mixtures […]. However, the binding reaction is sensitive to EDTA at greater than 0.1 mM EDTA. Complex formation is also somewhat temperature sensitive. Optimal binding is observed at 0°C. Between 15° C. and 30° C. there is a 30% reduction in complex formation. […]

[2] = test system: HIV-1 tat protein; format: binding; conditions: 32P-labeled RNA transcript, 0 to 600 ng tat
Description: i) Gel retardation assays (FIG. 6) Method RNA transcripts were prepared by transcription with either T3 or T7 RNA polymerases of TAR regions residues +1 to +57, cloned between the HindIII and EcoRI sites of the Bluescribe M13+expression vector (Stratagene). RNA transcripts corresponding to HIV-1 TAR [SEQ ID NO: 1], SSA [SEQ ID NO: 3], SAA and SAS [SEQ ID NO: 5] were synthesized from clones linearized with EcoRI and transcribed with T3 RNA polymerase. RNA transcripts corresponding to the antisense HIV-1 TAR […], AAS , ASS [SEQ ID NO: 4], and ASA (not shown) sequences were prepared from the same plasmids linearized with HindIII and transcribed using T7 RNA polymerase. All other RNA molecules were synthesized using T3 RNA polymerase following EcoRI cleavage of the plasmid vector. The RNA products each carry 13 nucleotides of vector sequence at their 5' end and four nucleotides at their 3' ends. […] Transcription mixtures contained 1 ug linearized plasmid, 40 mM Tris-HCl pH 8.0, 10 mM MgCl 2, 2 mM Spermidine-HCl, 50 mM NaCl, 100 uM each ribonucleotide triphosphate, 40 uCi (alpha-^32 P) UTP (410 Ci/m mol) and 10 units of RNA polymerase in a final volume of 30 ul and were incubated at 37° C. for 30 minutes. After phenol extraction and precipitation from ethanol the RNA was purified from a 9% polyacrylamide denaturing gel. The specific activity of the RNA product was determined and appropriate amounts were used in binding assays. Binding reaction mixtures (1 5ul) contained 1 ng of uniformly labeled RNA probe, 0.5 ug calf thymus DNA, 0.2 ug yeast TRNA, 40 units RNAsin (Promega), 50 mM Tris-HCl and 20 mM KCl and 0 to 600 ng tat protein, prepared from E. coli beta-galactosidase-tat fusion proteins, as described previously (6). After incubation at either 30° C. or 4° C. for 10-20 minutes, the reaction mixtures were applied to a 6% non-denaturing polyacrylamide gel (Acrylamide: Bis, 40:0.5) in 3.3 mM sodium acetate, 6.7 mM Tris (adjusted to pH 7.9 with HCl). The gel buffer was recirculated during electrophoresis at 35 mA for approximately 2 hours at room temperature. Gels were dried and exposed to X-ray film at -80° C. using intensifying screens.

[3] = test system: HIV-1 tat protein; assay: competition filter binding assay, mutant TAR transcripts against labelled HIV-1 TAR RNA (FIG. 7, Table 1); conditions: 20 nM TAR RNA, 40 nM tat protein; for IC50: read-out: D1/2 (concentration of competitor RNA that reduces binding of HIV-1 tat to HIV-1 TAR RNA to 50%)
Description: Binding reactions (500 ul) were set up on ice and contained 80 pM ^32 P-labeled TAR RNA (17,600 dpm, 200 uCi/n mol) and unlabeled TAR RNA to give a final concentration of 20 nM, 0.5 ug calf thymus DNA, 0.2 ug yeast tRNA, 40 units RNAsin (Promega), 50 mM Tris HCl and 20 mM KCl. After addition of competitor RNA, binding was initiated by addition of HIV-1 tat protein to a final concentration of 400 ng/ml (40 nM). The binding reaction mixtures were then filtered under reduced pressure through pre-washed nitrocellulose filters (Millipore 0.45 uM pore size) and filters were dried and counted by liquid scintillation counting.
The fraction of^32 P-labeled TAR RNA bound was plotted against the final concentration of competitor RNA. In these experiments reactions included 20 nM TAR and 40 nM tat protein and increasing amounts of unlabeled competitor RNA from 40 nm to 6 uM. […] In theory, 40 nM tat will bind 50% of the input TAR RNA (D1/2) when the total TAR RNA concentration is 56 nM.
For competition experiments, binding reactions (500 ul) were set up on ice and contained 80 pM ^32 P-labeled TAR RNA (17,600 dpm, 200 uCi/n mol) and unlabeled TAR RNA to give a final concentration of 20 nM, 0.5 ug calf thymus DNA, 0.2 ug yeast TRNA, 40 units RNAsin (Promega), 50 mM Tris-HCl pH 7.9 and 20 mM KCl. After addition of 0 to 6 uM competitor RNA, binding was initiated by addition of HIV- 1 tat protein to a final concentration of 400 ng/mi (40 nM). The binding reaction mixtures were then filtered under reduced pressure through pre-washed nitrocellulose filters (Millipore 0.45 u pore size) and filters were dried and counted by liquid scintillation counting.
KRel is the ratio of the D1/2 values for HIV-1 TAR and competitor RNA.

[4] = test system: tat-dependent promoter activity of viral LTR carrying the TAR sequence; assay: trans-activation CAT assay, HeLa cells cotransfected with LTR-CAT test plasmid and tat expression plasmid; format: cell-based; conditions: HeLa cells cotransfected with tat plasmid
Source text: If tat binding to TAR is necessary for trans-activation, then viral LTRs carrying TAR sequences with low affinities for tat should always have reduced tat-dependent promoter activity in vivo. Site-directed mutagenesis experiments on TAR have shown that trans-activation requires sequences in both the U-rich bulge (10, 11) and the loop sequence (12, 27, 28). These observations have now been extended, using TAR mutations with known affinities for tat in transfection experiments, the results of which are shown in FIG. 8. The experiments used either HeLa cells (FIG. 8a-d) or a constitutive producer of tat, HeLa/C63/tat cells (FIG. 8e-f).
The TAR sequences depicted in FIG. 3 [SEQ ID NO: 1-11] were introduced into a test plasmid, pD5-3-3, which carries a LTR and approximately 300 bases of 5' flanking sequences derived from the infectious proviral clone NL4 (29). The bacterial chloramphenicol acetyltransferase (CAT) gene and SV40 intron and terminator sequence from pSV2-CAT (30) was inserted downstream of TAR by cloning into the HindIII site at +77. Trans-activation was measured either by cotransfection of HeLa cells with the test plasmids and the tat expression plasmid pC63-4-1 (6) (panels a-d in […]), or by transfection of the test plasmids alone into HeLa/C63/tat (clone 9) cells (panels e-h). […]

[5] = biological target: T1, HIV-1 Tat (Human immunodeficiency virus 1, UniProt P04608 P04608:1-86); assay: filter; Scatchard 11.8 nM; 50 mM Tris-HCl, 20 mM KCl, on ice, calf thymus DNA and yeast tRNA present; conditions: label: 32P; stem-loop with 3-nt U-rich bulge
[6] = biological target: T1, HIV-1 Tat; assay: filter; UCU bulge indistinguishable from UUU; conditions: stem-loop with bulge
[7] = biological target: T1, HIV-1 Tat; assay: competition; D1/2; wild type 90 nM
[8] = biological target: T1, HIV-1 Tat; assay: competition; D1/2; unmodified 29-mer 60 nM; 29-mer probe; conditions: hairpin with U-rich bulge
[9] = biological target: T1, HIV-1 Tat; assay: competition; D1/2; unmodified 18+15 duplex 65 nM; conditions: duplex with bulge

Antisense: anti-sense sequence to HIV-1 BRU TAR (antisense GGGUUCCCUAGUUAGCCAGAGAGCUCCCAGGCUCAAAUCUGGUCUAACCAGAGAGACCC; chemistry not given here) [reference compound]
Kd [1]: > 140 nM | complex formation with tat in gel retardation assay [2]: No complexes were formed

HIV-2 TAR: first stem-loop structure of HIV-2 ROD TAR RNA, bulge of two uridine residues (CUGCGGAGAGGCUGGCAGAUUGAGCCCUGGGAGGUUCUCUCCAGCACUAGCAG; RNA, backbone not given here) [reference compound]
Kd [1]: 30 nM | KRel (ratio of D1/2 values for HIV-1 TAR and competitor RNA) [3]: 0.40 | IC50 [3]: 160 nM | complex formation with tat in gel retardation assay [2]: discrete complex formation

G28 to C28 ; C37 to G37: pair of TAR point mutations expected to have a normal TAR stem/loop structure (GGGUCUCUCUGGUUAGACCAGAUUUGACCCUGGGAGGUCUCUGGCUAACUAGGGAACCC; chemistry not given here)
Kd [1]: 24 nM | KRel (ratio of D1/2 values for HIV-1 TAR and competitor RNA) [3]: 0.84 | IC50 [3]: 76 nM | trans-activation phenotype [4]: restored to wild-type levels

B1: HIV-1 TAR RNA 59-mer (UUU bulge) (ssRNA)
RNA: GGGUCUCUCUGGUUAGACCAGAUUUGAGCCUGGGAGCUCUCUGGCUAACUAGGGAACCC
Kd [5]: 12 nM

B2: HIV-1 TAR RNA (UCU bulge) (ssRNA)
RNA: B1 RNA with U24C
modifications: [24]
Kd [6]: 12 nM

B3: TAR C39 to G39 (ssRNA)
RNA: B1 RNA with C39G
IC50 [7]: 1500 nM

B4: TAR G26 to C26; C39 to G39 (ssRNA)
RNA: B1 RNA with G26C, C39G
IC50 [7]: 2370 nM

B5: TAR G26 to A26; C39 to U39 (ssRNA)
RNA: B1 RNA with G26A, C39U
IC50 [7]: 631 nM

GCCAGAUUUGAGCCUGGGAGCUCUCUGGC (ssRNA, 2'-deoxyuridine at U23 (nt 7) [7 (2'-deoxyuridine, U23)]) [29-mer dU-23]
IC50 [8]: 55 nM

GCCAGAUUUGAGCCUGGGAGCUCUCUGGC (ssRNA, 2'-OMe uridine at U23 (nt 7) [7 (2'-OMe uridine, U23)]) [29-mer 2'-OMeU-23]
IC50 [8]: 50 nM

B6: 18+15 duplex 4-thioT-23 (dsRNA)
RNA 1: AGCCAGATUUGAGCAGCU
RNA 2: AGCUGCUCUCUGGCU
modifications: 4-thio-2'-deoxythymidine at U23 (nt 8) [8 (strand 1, 4-thio-2'-deoxythymidine)]
IC50 [9]: 32 nM

B7: 18+15 duplex 4-thioT-24 (dsRNA)
RNA 1: AGCCAGAUTUGAGCAGCU
RNA 2: AGCUGCUCUCUGGCU
modifications: 4-thio-2'-deoxythymidine at U24 (nt 9) [9 (strand 1, 4-thio-2'-deoxythymidine)]
IC50 [9]: 25 nM
